Results taken from patent US11753407B2, “Compounds for treating spinal muscular atrophy” (PTC Therapeutics, Inc., priority 2012, dated 2023).

Test system: Smn protein produced from the SMN2 gene
Experiment: Smn protein assay in tissues of adult C/C-allele SMA mice
Assay type: in vivo
Details: brain, spinal cord, muscle
Experimental: This Smn protein assay compares tissues from test compound treated mice with those from DMSO vehicle treated mice to determine the increase in levels of Smn protein produced from the human SMN2 gene.
Protocol. The tissue samples in Safe-Lock tubes are weighed and the volume of RIPA buffer containing the protease inhibitor cocktail is added based on the weight to volume ratios for each type of tissue: Brain (50 mg/mL), Muscle (50 mg/mL) and Spinal Cord (25 mg/mL).
Tissues are homogenized using the TissueLyzer by bead milling. 5 mm stainless steel beads are added to the sample and shaken vigorously for 5 minutes at 30 Hz in the TissueLyzer. […] Fluorescence for each well of the plate at 665 nm and 620 nm is measured on an EnVision multilabel plate reader (Perkin-Elmer). The total protein in the tissue homogenate is measured using the BCA assay according to the manufacturer's protocol.
The normalized fluorescence signal is calculated for each sample, Blank and vehicle control well by dividing the signal at 665 nm by the signal at 620 nm. Normalizing the signal accounts for possible fluorescence quenching due to the matrix effect of the tissue homogenate. […] The ΔF value for each tissue sample well is divided by the total protein quantity (determined using the BCA assay) for that tissue sample. […]

Compound | total protein-normalized Smn level (100 mg/kg BID for 10 days, relative to vehicle group (FIG. 11a)) | total protein-normalized Smn level (10 mg/kg BID for 10 days, relative to vehicle group (FIG. 11b))
COc1ccc(-c2cc(=O)n3cc(N4CCNCC4)ccc3n2)cc1OC [Cpd 6, 2-(3,4-dimethoxyphenyl)-7-(piperazin-1-yl)-4H-pyrido[1,2-a]pyrimidin-4-one] | increased in brain, spinal cord, and muscle tissues | 
Cc1cn2nc(-c3cc(=O)n4cc(N5CCN(C)CC5)ccc4n3)cc2c(C)n1 [Cpd 170, 2-(4,6-dimethylpyrazolo[1,5-a]pyrazin-2-yl)-7-(4-methylpiperazin-1-yl)-4H-pyrido[1,2-a]pyrimidin-4-one] |  | increased in brain, spinal cord, and muscle tissues
